Measurements as given in patent US8686177B2, “LPA receptor agonists and antagonists” (RxBio, Inc., priority 2008, dated 2014).

What was measured:
LPA receptors (LPA1/2/3) = experiment: LPA receptor agonist/antagonist activity (Table 4); assay type: cell-based
Description: Compounds were tested for their ability to induce or inhibit LPA-induced calcium transients in RH7777 rat hepatoma cells stably expressing LPA1, LPA2, and LPA3 receptors and in PC-3 that express LPA1-3 endogenously, using a FlexStation II automated fluorometer (Molecular Devices, Sunnyvale, Calif.).
RH7777 cells stably expressing either LPA1, LPA2 or LPA3 or PC-3 cells were plated on poly-D lysine-coated black wall clear bottom 96-well plates (Becton Dickinson, San Jose, Calif.) with a density of 50000 cells/well, and cultured overnight. The culture medium (DMEM containing 10% FBS) was then replaced with modified Krebs solution (120 mM NaCl, 5 mM KCl, 0.62 mM MgSO4, 1.8 mM CaCl2, 10 mM HEPES, 6 mM glucose, pH 7.4) and the cells were serum starved for 6-8 hours (12 h for PC-3 cells). Cells were loaded with Fura-2 AM for 35 minutes in modified Krebs medium. The Fura-2 was removed before loading the plate in the FlexStation instrument by replacing the medium once again with 100 μl modified Krebs medium/well. Plates were incubated for 4 minutes in the instrument to allow for warming to 37° C. Changes in intracellular Ca^2+ concentration were monitored by measuring the ratio of emitted light intensity at 520 nm in response to excitation by 340 nm and 380 nm wavelength lights, respectively. Each well was monitored for 80-120 seconds. […] Time courses were recorded using the SoftMax Pro software (Molecular Devices, Sunnyvale, Calif.). Ca^+ transients were quantified automatically by calculating the difference between maximum and baseline ratio values for each well.

LPA1 receptor = biological target: T1, LPA1 receptor (Homo sapiens, UniProt Q92633); experiment: LPA-induced Ca2+ transients in RH7777 cells stably expressing LPA1 (agonism/antagonism); assay type: cell-based; conditions: RH7777 cells expressing LPA1, compared to LPA 18:1
T1 construct: expressed in transfected cells
T1 sequence (Q92633 whole entry): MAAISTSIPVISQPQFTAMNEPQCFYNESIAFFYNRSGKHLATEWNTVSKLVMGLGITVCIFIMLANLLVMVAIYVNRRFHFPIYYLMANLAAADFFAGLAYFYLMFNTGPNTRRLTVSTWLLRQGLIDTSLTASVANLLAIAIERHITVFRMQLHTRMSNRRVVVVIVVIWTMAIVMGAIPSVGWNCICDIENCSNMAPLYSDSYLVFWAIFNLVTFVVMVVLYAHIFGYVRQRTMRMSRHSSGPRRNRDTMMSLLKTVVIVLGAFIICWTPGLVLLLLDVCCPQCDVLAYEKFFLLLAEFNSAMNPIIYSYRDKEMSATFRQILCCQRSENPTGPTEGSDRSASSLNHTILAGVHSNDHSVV
Description: (§1) RH7777 cells stably expressing either LPA1, LPA2 or LPA3 or PC-3 cells were plated on poly-D lysine-coated black wall clear bottom 96-well plates (Becton Dickinson, San Jose, Calif.) with a density of 50000 cells/well, and cultured overnight. The culture medium (DMEM containing 10% FBS) was then replaced with modified Krebs solution (120 mM NaCl, 5 mM KCl, 0.62 mM MgSO4, 1.8 mM CaCl2, 10 mM HEPES, 6 mM glucose, pH 7.4) and the cells were serum starved for 6-8 hours (12 h for PC-3 cells). […] Changes in intracellular Ca^2+ concentration were monitored by measuring the ratio of emitted light intensity at 520 nm in response to excitation by 340 nm and 380 nm wavelength lights, respectively. Each well was monitored for 80-120 seconds. […] Time courses were recorded using the SoftMax Pro software (Molecular Devices, Sunnyvale, Calif.). Ca^+ transients were quantified automatically by calculating the difference between maximum and baseline ratio values for each well.
(§2) These new analogs were evaluated as agonists and antagonists with respect to LPA1-3. […]

LPA2 receptor = biological target: T2, LPA2 receptor (Homo sapiens, UniProt Q9HBW0); experiment: LPA-induced Ca2+ transients in RH7777 cells stably expressing LPA2 (agonism/antagonism); assay type: cell-based; conditions: RH7777 cells expressing LPA2, compared to LPA 18:1
T2 construct: expressed in transfected cells
T2 sequence (Q9HBW0 whole entry): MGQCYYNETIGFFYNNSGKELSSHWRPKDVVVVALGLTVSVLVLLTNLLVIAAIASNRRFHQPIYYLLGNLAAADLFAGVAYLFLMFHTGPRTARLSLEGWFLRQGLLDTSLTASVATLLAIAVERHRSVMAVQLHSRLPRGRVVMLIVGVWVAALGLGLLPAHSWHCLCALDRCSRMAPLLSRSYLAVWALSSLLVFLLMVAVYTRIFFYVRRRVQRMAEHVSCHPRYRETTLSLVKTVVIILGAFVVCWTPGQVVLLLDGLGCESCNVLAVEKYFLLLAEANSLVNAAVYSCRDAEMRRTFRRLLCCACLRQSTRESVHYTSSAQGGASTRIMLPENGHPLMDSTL
Description: as §1, §2

[1] = system: small intestine crypts of irradiated mice; experiment: Crypt survival in whole-body gamma-irradiated mice (Example 9); assay type: in vivo
Description: ICR strain male mice (Harlan Laboratories, body weight 30-33 g) on a 12 h light/dark cycle and otherwise maintained on a standard laboratory chow ad libitum were starved for 16 h prior to treatment. WBI was done with a 12 Gy or 15 Gy dose using Cs^137 source at a dose rate of 1.9 Gy per minute. Groups of four mice received either 250 μl of 1 mM LPA complexed with 100 μM BSA dissolved in Hanks basal salt solution or the BSA vehicle alone 2 h prior to irradiation.
For detection of the apoptotic bodies, mice were euthanized with carbon dioxide inhalation 4 h after irradiation and the small intestine was dissected and fixed in neutral phosphate buffered isotonic 10% formalin. Four ˜3- to 4-mm long segments from the small intestine were embedded in paraffin, 5 μM thick sections were cut and stained with hematoxilin and eosin. The number of surviving crypts was counted 3.5 days after irradiation.

LPA3 receptor = biological target: T3, LPA3 receptor (Homo sapiens, UniProt Q9UBY5); experiment: LPA-induced Ca2+ transients in RH7777 cells stably expressing LPA3 (agonism/antagonism); assay type: cell-based; conditions: RH7777 cells expressing LPA3, compared to LPA 18:1
T3 construct: expressed in transfected cells
T3 sequence (Q9UBY5 1-353): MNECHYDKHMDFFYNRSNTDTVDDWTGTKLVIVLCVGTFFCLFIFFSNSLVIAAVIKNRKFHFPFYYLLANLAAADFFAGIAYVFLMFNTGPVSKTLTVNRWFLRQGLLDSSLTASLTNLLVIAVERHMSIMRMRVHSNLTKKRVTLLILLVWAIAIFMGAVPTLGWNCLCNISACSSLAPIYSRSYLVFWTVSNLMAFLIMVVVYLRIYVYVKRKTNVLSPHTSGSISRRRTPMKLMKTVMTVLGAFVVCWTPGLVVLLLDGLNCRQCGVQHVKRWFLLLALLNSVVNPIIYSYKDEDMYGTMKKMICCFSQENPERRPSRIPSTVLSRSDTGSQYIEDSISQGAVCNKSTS
Description: as §1, §2

IEC-6 cells [2] = experiment: Camptothecin-induced DNA fragmentation in IEC-6 cells (Example 8, Cell Death Detection ELISA); assay type: cell-based; conditions: 20 μM camptothecin; LPA and FAP 12 at 10 μM
Description: IEC-6 cells were grown in DMEM medium supplemented with 5% fetal bovine serum, insulin (10 μg/ml), gentamycin sulfate (50 μg/ml), and incubated at 37° C. in a humidified 90% air-10% CO2 atmosphere. Medium was changed every other day. Sub-confluent cells were washed twice and replaced by DMEM without serum the night before experiments.
Damage and IEC-6 cell apoptosis was induced via either γ-irradiation or chemotherapy. 20 Gy single dose of [^137Cs] source γ-irradiation was used in all experiments. […] In some experiments, LPA was added at different times before or after irradiation. Treatment with 20 μM camptothecin of IEC-6 cells induces DNA fragmentation as measured by the ELISA assay at 16 h after treatment. DNA fragmentation was quantified using the Cell Death Detection ELISA kit from Boehringer (Indianapolis, Ind.) according to the instructions of the manufacturer. Samples were run in triplicate. A duplicate of the sample was used to quantify protein concentration using the BCA kit from Pierce (Rockford, Ill.). DNA fragmentation was expressed as absorbance units per μg protein per minute.

IEC-6 cells [3] = experiment: DNA fragmentation assay in camptothecin-induced IEC-6 cells (Example 11, FIG. 7); assay type: cell-based; conditions: 20 μM camptothecin, 15 min pre-treatment, 6 hours
Description: IEC-6 cells were obtained from the American Type Culture Collection (Manassas, Va.) and were grown in Dulbecco's modified Eagle medium (DMEM) supplemented with 10% fetal bovine serum, 10 μg/ml insulin, and 50 μg/ml gentamicin sulfate at 37° C. in a humidified 90% air/10% CO2 atmosphere. The medium was changed every other day. Cells between passage 15 and 21 were used for the experiments. Newly synthesized RxBio analogs at doses ranging from […] were used to pre-treat IEC-6 cells for 15 min. Apoptosis was induced by 20 μM camptothecin following the pre-treatment. DNA fragmentation was measured 6 hours after camptothecin treatment by enzyme-linked immunosorbent assay using the cell death detection ELISA^PLUS kit from Roche (Indianapolis, Ind.) following the instruction of the manufacturer. Briefly, cells were harvested and lysed in DNA lysis buffer for 30 min. Sample lysates were collected after centrifugation at 200 rpm for 10 min. 10 μl of supernatant was loaded individually in a 96-well streptavidin-coated plate and incubated with immunoreagents (anti-histone-biotin plus anti-DNA peroxidase conjugated antibody) on a shaker for 2 h. […] DNA absorbance was read at 405 nm in a microplate reader (PerkinElmer, Shelton, Conn.). Aliquots of samples were used to quantify protein concentration using the bicinchoninic acid kit (Pierce, Rockford, Ill.).

In the case of `CCCCCCCC/C=C/CCCCCCCCOP(O)(O)=S.N` [RxBVG-I-67, Ammonium thiophosphoryl-O-octadec-9E-enyl ester], the Activity (LPA receptors (LPA1/2/3)) is reported as “LPA3 agonist”.
With `CCCCCCCCC=CCCCCCCCCOP(O)(O)=S` [8g, Thiophosphoric acid O-octadec-9-enyl ester] the “ligand property at LPA1 (FIG. 2A)” value (LPA1 receptor) was “agonist”, the “ligand property at LPA2 (FIG. 2B)” value (LPA2 receptor) was “agonist” and the crypt survival ([1]; 200 μM into the stomach 2 h prior irradiation, FIG. 3) was “significantly (P>0.01) enhanced crypt survival”. For the same compound, the “crypt survival, dose dependence” value ([1]; FIG. 4) was “dose-dependent enhancement of crypt survival”, the “crypt survival in jejunum and ileum compared with LPA” value ([1]; γ-irradiated mice, FIG. 5) was “present in the jejunum and ileum and exceeded that of LPA” and the “ligand property at LPA3 (FIG. 2C)” value (LPA3 receptor) was “agonist”. For the same compound, the “inhibition of camptothecin-induced DNA fragmentation” value (“inhibition” for short) (IEC-6 cells [2]) was “comparable to that of LPA but supersedes it at concentrations above 3 μM”.
With “Potassium boranophosphoryl monododecyl ester [RxBVG-II-11]” the Activity (LPA receptors (LPA1/2/3)) was “LPA2 agonist”.
With `CCCCCCCCC1CC1CCCCCCCCCCOP([O-])(O)=S.[K+]` (centres unmarked) [RxBVG-II-36, Potassium thiophosphoryl-O-[10-(2-octyl-cyclopropyl)-decyl]ester] the Activity (LPA receptors (LPA1/2/3)) was “LPA2 agonist”.
In the case of `CCCCCC/C=C\CCCCCCCCOP(O)(O)=S.N` [RxBVG-I-81, Ammonium thiophosphoryl-O-hexadec-9Z-enyl ester], the Activity (LPA receptors (LPA1/2/3)) is reported as “Pan antago- nist (LPA1/2/3)”.
With `BP(=O)(O)OCCCCCCCCCCCCCCCCCC` [RxBVG-II-7, Potassium boranophosphoryl monooctadecyl ester] the Activity (LPA receptors (LPA1/2/3)) was “LPA2 agonist”.
For `CCCCCCC1CC1CCCCCCCCCCOP([O-])(O)=S.[K+]` (centres unmarked) [RxBVG-II-34, Potassium thiophosphoryl-O-[10-(2-hexyl-cyclopropyl)-decyl]ester], the Activity (LPA receptors (LPA1/2/3)) was “LPA2 agonist”.
For `CCCCC/C=C\C/C=C\CCCCCCCCOP(O)(O)=S` [RxBVG-I-83, Ammonium thiophosphoryl-O-octadeca-9Z,12Z-dienyl ester], the Activity (LPA receptors (LPA1/2/3)) was “LPA2 agonist”.
With `[K+].[O-]P(O)(=S)OCCCCCCCCC1CC1` [RxBVG-II-23, Potassium thiophosphoryl-O-(8-cyclopropyl-octyl) ester] the Activity (LPA receptors (LPA1/2/3)) was “LPA2 agonist”.
`CCCCCCCC(CCCCCCC)OP(=O)(O)O.N.N` [RxBVG-I-27, Ammonium phosphoryl-mono-(1-heptyl-octyl) ester] was tested, and the Activity (LPA receptors (LPA1/2/3)) was “Pan antago- nist (LPA1/2/3)”.
`CCCC/C=C\CCCCCCCCCOP(O)(O)=S.N` [RxBVG-I-82, Ammonium thiophosphoryl-O-pentadec-10Z-enyl ester] was tested, and the Activity (LPA receptors (LPA1/2/3)) was “Pan antago- nist (LPA1/2/3)”.
With `CCCCCCCC/C=C\CCCCCCCC(=O)OC[C@@H](O)COP(=O)(O)O` [oleoyl-LPA] the “inhibition” value (IEC-6 cells [2]) was “inhibited”.
In the case of `CCCCCCC1CC1CCCCCCCCOP(O)(O)=S.N` (centres unmarked) [RxBVG-II-22, Ammonium thiophosphoryl-O-[8-(2-hexyl-cyclopropyl)-octyl]ester], the Activity (LPA receptors (LPA1/2/3)) is reported as “LPA2 agonist”.
For `CCCCCC1CC1CC1CC1CCCCCCCCOP([O-])(O)=S.[K+]` (centres unmarked) [RxBVG-II-35, Potassium thiophosphoryl-O-{8-[2-(2-pentyl-cyclopropylmethyl)-cyclopropyl]octyl}ester], the Activity (LPA receptors (LPA1/2/3)) was “LPA2 agonist”.
With `CCCCCCCCCCCCCCC(C(=O)O)C(=O)O` [RxBVG-I-8, 2-Tetradecyl-malonic acid] the Activity (LPA receptors (LPA1/2/3)) was “LPA2 agonist”.
In the case of `BP(=O)(O)OCCCCCCCC` [RxBVG-II-13, Potassium boranophosphoryl monooctyl ester], the Activity (LPA receptors (LPA1/2/3)) is reported as “LPA2 agonist”.
For `CCCCCCCCCCCCCCCCCCC(COP(O)(O)=S)COP(O)(O)=S.N` [RxBVG-I-64, Ammonium thiophosphoryl-O-(2-thiophosphonooxymethyl-eicosyl) ester], the Activity (LPA receptors (LPA1/2/3)) was “LPA3 agonist”.
With “Ammonium thiophosphoryl-O-eicos-11Z-enyl ester [RxBVG-I-77]” the Activity (LPA receptors (LPA1/2/3)) was “LPA2 agonist”.
`CCCCCCCCC1CC1CCCCCCCCOP(O)(O)=S.N` (stereo not drawn) [RxBVG-I-93, Ammonium thiophosphoryl-O-[8-(2-octyl-cis-cyclopropyl)-octyl]ester] was tested, and the Activity (LPA receptors (LPA1/2/3)) was “LPA2 agonist” and the “efficacy in DNA fragmentation assay” value (IEC-6 cells [3]) was “even more efficacy than did oleoyl thiophosphate”.
For `CCCCCCCCCCCCOP(=O)(O)O` [FAP 12], the “inhibition” value (IEC-6 cells [2]) was “inhibited”.
For `CCCCCCCC(CCCCCCC)OP(O)(O)=S` [RxBVG-I-28, Thiophosphoric acid O-(1-heptyl-octyl) ester], the Activity (LPA receptors (LPA1/2/3)) was “Pan antago- nist (LPA1/2/3)”.
For `BP(=O)(O)OCCCCCCCCCCCCCC` [RxBVG-II-9, Potassium boranophosphoryl monotetradecyl ester], the Activity (LPA receptors (LPA1/2/3)) was “LPA2 agonist”.
